What was measured:
[1] = molecular target: GDP-bound NRAS wild-type protein (Homo sapiens, UniProt P01111); assay: Binding to NRAS by surface plasmon resonance (SPR), Single Cycle Kinetics; conditions: SPR; for NRAS/KRAS (ratio of KD value for GDP-bound NRAS wild-type protein to KD value for KRAS): KD ratio class; for NRAS/KRAS (ratio of KD value for NRAS to KD value for KRAS): GDP-bound NRAS wild-type vs GDP-bound KRAS wild-type
[2] = molecular target: GDP-bound HRAS wild-type protein (Homo sapiens, UniProt P01112); assay: Binding to HRAS by surface plasmon resonance (SPR), Single Cycle Kinetics; conditions: SPR; for HRAS/KRAS (ratio of KD value for GDP-bound HRAS wild-type protein to KD value for KRAS): KD ratio class; for HRAS/KRAS (ratio of KD value for HRAS to KD value for KRAS): GDP-bound HRAS wild-type vs GDP-bound KRAS wild-type
Sequence of GDP-bound HRAS wild-type protein (P01112 whole entry): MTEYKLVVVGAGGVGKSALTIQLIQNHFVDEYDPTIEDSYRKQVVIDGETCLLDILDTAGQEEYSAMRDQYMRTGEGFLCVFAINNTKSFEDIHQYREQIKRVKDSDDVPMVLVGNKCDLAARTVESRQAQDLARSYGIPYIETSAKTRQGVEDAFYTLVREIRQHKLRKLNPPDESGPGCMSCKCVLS

Sequence of GDP-bound NRAS wild-type protein (P01111 whole entry): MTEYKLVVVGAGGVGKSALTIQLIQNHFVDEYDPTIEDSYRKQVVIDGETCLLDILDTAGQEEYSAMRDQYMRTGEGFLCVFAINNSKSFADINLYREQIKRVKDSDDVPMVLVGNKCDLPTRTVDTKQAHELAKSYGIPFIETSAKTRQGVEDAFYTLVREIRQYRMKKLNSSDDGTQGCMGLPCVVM

| Structure (SMILES) | NRAS/KRAS (ratio of KD value for GDP-bound NRAS wild-type protein to KD value for KRAS) [1] | HRAS/KRAS (ratio of KD value for GDP-bound HRAS wild-type protein to KD value for KRAS) [2] | NRAS/KRAS (ratio of KD value for NRAS to KD value for KRAS) [1] | HRAS/KRAS (ratio of KD value for HRAS to KD value for KRAS) [2] |
| --- | --- | --- | --- | --- |
| CCO[C@@H]1C[C@H]2C(=O)NC3(CCC3)C(=O)N(C)[C@@H](C3CCCC3)C(=O)N(C)[C@H](C(=O)N3CCOCC3)CC(=O)N(C)[C@@H](CC)C(=O)N[C@@H]([C@@H](C)CC)C(=O)N(C)CC(=O)N(C)[C@H]3CC/C=C(/C)CN(C3=O)[C@@H](Cc3ccc(C(F)(F)F)cc3)C(=O)N(C)CC(=O)N[C@@H](CCc3cc(F)c(C(F)(F)F)c(F)c3)C(=O)N2C1 [PP1335] | B (a compound having 3 or more and less than 10 is denoted as B) | B (a compound having 3 or more and less than 10 is denoted as B) |  |  |
| CCCN(C)C(=O)[C@@H]1CC(=O)N(C)[C@@H](CC(C)C)C(=O)N[C@@H]([C@@H](C)CC)C(=O)N(C)CC(=O)N(C)[C@H]2C/C=C\CCN(C2=O)[C@@H](Cc2ccc(C(F)(F)F)cc2)C(=O)N(C)CC(=O)N[C@@H](CCc2cc(F)c(C(F)(F)F)c(F)c2)C(=O)N2C[C@H](OCC)C[C@H]2C(=O)NC2(CCC2)C(=O)N(C)[C@@H](C2CCCC2)C(=O)N1C [PP1387] | A (a compound having 10 or more and less than 20 is denoted as A) | B (a compound having 3 or more and less than 10 is denoted as B) |  |  |
| CCCN(C)C(=O)[C@@H]1CC(=O)N(C)[C@@H](CC2CC2)C(=O)N[C@@H]([C@@H](C)CC)C(=O)N(C)CC(=O)N(C)[C@H]2C/C=C\CCN(C2=O)[C@@H](Cc2ccc(C(F)(F)F)cc2)C(=O)N(C)CC(=O)N[C@@H](CCc2cc(F)c(C(F)(F)F)c(F)c2)C(=O)N2C[C@H](OCC)C[C@H]2C(=O)NC2(CCC2)C(=O)N(C)[C@@H](C2CCCC2)C(=O)N1C [PP1388] | A (a compound having 10 or more and less than 20 is denoted as A) | B (a compound having 3 or more and less than 10 is denoted as B) |  |  |
| CCC[C@H]1C(=O)N[C@@H]([C@@H](C)CC)C(=O)N(C)CC(=O)N(C)[C@H]2C/C=C\CCN(C2=O)[C@@H](Cc2ccc(C(F)(F)F)cc2)C(=O)N(C)CC(=O)N[C@@H](CCc2cc(F)c(C(F)(F)F)c(F)c2)C(=O)N2C[C@H](OCC)C[C@H]2C(=O)NC2(CCC2)C(=O)N(C)[C@@H](C2CCCC2)C(=O)N(C)[C@H](C(=O)N(C)CCC)CC(=O)N1C [PP1389] | AA (a compound having 20 or more is denoted as AA) | A (a compound having 10 or more and less than 20 is denoted as A) |  |  |
| CC[C@H](C)[C@@H]1NC(=O)[C@H](CC2CC2)N(C)C(=O)C[C@@H](C(=O)N(C)C)N(C)C(=O)[C@H](C2CCCC2)N(C)C(=O)C2(CCC2)NC(=O)[C@@H]2[C@@H](OCC(F)F)CCN2C(=O)[C@H](CCc2cc(F)c(C(F)(F)F)c(F)c2)NC(=O)CN(C)C(=O)[C@H](Cc2ccc(C(F)(F)F)cc2)N2CC/C=C\C[C@@H](C2=O)N(C)C(=O)CN(C)C1=O [PP1533] | AA (a compound having 20 or more is denoted as AA) | A (a compound having 10 or more and less than 20 is denoted as A) |  |  |
| CC[C@H](C)[C@@H]1NC(=O)[C@H](CC(C)C)N(C)C(=O)C[C@@H](C(=O)N(C)C)N(C)C(=O)[C@H](C2CCCC2)N(C)C(=O)C2(CCC2)NC(=O)[C@@H]2[C@@H](OCC(F)F)CCN2C(=O)[C@H](CCc2cc(F)c(C(F)(F)F)c(F)c2)NC(=O)CN(C)C(=O)[C@H](Cc2ccc(C(F)(F)F)cc2)N2CC/C=C\C[C@@H](C2=O)N(C)C(=O)CN(C)C1=O [PP1534] | AA (a compound having 20 or more is denoted as AA) | A (a compound having 10 or more and less than 20 is denoted as A) |  |  |
| CC[C@H](C)[C@@H]1NC(=O)[C@H](CC2CC2)N(C)C(=O)C[C@@H](C(=O)N(C)CC)N(C)C(=O)[C@H](C2CCCC2)N(C)C(=O)C2(CCC2)NC(=O)[C@@H]2C[C@H](C)CN2C(=O)[C@H](CCc2cc(F)c(C(F)(F)F)c(F)c2)NC(=O)CN(C)C(=O)[C@H](Cc2ccc(C(F)(F)F)cc2)N2CC/C=C\C[C@@H](C2=O)N(C)C(=O)CN(C)C1=O [PP1537] | AA (a compound having 20 or more is denoted as AA) | A (a compound having 10 or more and less than 20 is denoted as A) |  |  |
| CC[C@H](C)[C@@H]1NC(=O)[C@H](CC2CC2)N(C)C(=O)C[C@@H](C(=O)N(C)CC)N(C)C(=O)[C@H](C2CCCC2)N(C)C(=O)C2(CCC2)NC(=O)[C@@H]2CC(F)(F)CN2C(=O)[C@H](CCc2cc(F)c(C(F)(F)F)c(F)c2)NC(=O)CN(C)C(=O)[C@H](Cc2ccc(C(F)(F)F)cc2)N2CC/C=C\C[C@@H](C2=O)N(C)C(=O)CN(C)C1=O [PP1538] | A (a compound having 10 or more and less than 20 is denoted as A) | B (a compound having 3 or more and less than 10 is denoted as B) |  |  |
| CCO[C@@H]1C[C@H]2C(=O)NC3(CCC3)C(=O)N(C)[C@@H](C3CCCC3)C(=O)N(C)[C@H](C(=O)N(C)CC)CC(=O)N(C)[C@@H](CC)C(=O)N[C@@H]([C@@H](C)CC)C(=O)N(C)CC(=O)N(C)[C@H]3C/C=C\CCN(C3=O)[C@@H](CC3CCCCC3)C(=O)N(C)CC(=O)N[C@@H](CCc3cc(F)c(C(F)(F)F)c(F)c3)C(=O)N2C1 [PP1552] | A (a compound having 10 or more and less than 20 is denoted as A) | A (a compound having 10 or more and less than 20 is denoted as A) |  |  |
| CCO[C@@H]1C[C@H]2C(=O)NC3(CCC3)C(=O)N(C)[C@@H](C3CCCC3)C(=O)N(C)[C@H](C(=O)N(C)CC)CC(=O)N(C)[C@@H](CC)C(=O)N[C@@H]([C@@H](C)CC)C(=O)N(C)CC(=O)N(C)[C@H]3C/C=C\CCN(C3=O)[C@@H](CC3CCC(F)(F)CC3)C(=O)N(C)CC(=O)N[C@@H](CCc3cc(F)c(C(F)(F)F)c(F)c3)C(=O)N2C1 [PP1553] | A (a compound having 10 or more and less than 20 is denoted as A) | A (a compound having 10 or more and less than 20 is denoted as A) |  |  |
| C=CCCCCN(C)C(=O)[C@@H]1CC(=O)N(C)[C@@H](CC2CC2)C(=O)N[C@@H](CC=C)C(=O)N(C)CC(=O)N(C)[C@H]2C/C=C\CCN(C2=O)[C@@H](Cc2ccc(C(F)(F)F)cc2)C(=O)N(C)CC(=O)N[C@@H](CCc2cc(F)c(C(F)(F)F)c(F)c2)C(=O)N2C[C@H](OCC)C[C@H]2C(=O)NC2(CCC2)C(=O)N(C)[C@@H](C2CCCC2)C(=O)N1C [PP1554] | A (a compound having 10 or more and less than 20 is denoted as A) | A (a compound having 10 or more and less than 20 is denoted as A) |  |  |
| C=CC[C@@H]1NC(=O)[C@H](CC2CC2)N(C)C(=O)C[C@@H](C(=O)N(C)CC=C)N(C)C(=O)[C@H](C2CCCC2)N(C)C(=O)C2(CCC2)NC(=O)[C@@H]2C[C@@H](OCC)CN2C(=O)[C@H](CCc2cc(F)c(C(F)(F)F)c(F)c2)NC(=O)CN(C)C(=O)[C@H](Cc2ccc(C(F)(F)F)cc2)N2CC/C=C\C[C@@H](C2=O)N(C)C(=O)CN(C)C1=O [PP1557] | A (a compound having 10 or more and less than 20 is denoted as A) | A (a compound having 10 or more and less than 20 is denoted as A) |  |  |
| CCO[C@@H]1C[C@H]2C(=O)NC3(CCCC3)C(=O)N(C)[C@@H](C3CCCC3)C(=O)N(C)[C@H](C(=O)N(C)CC)CC(=O)N(C)[C@@H](CC(C)C)C(=O)N[C@@H]([C@@H](C)CC)C(=O)N(C)CC(=O)N(C)[C@H]3C/C=C\CCN(C3=O)[C@@H](Cc3ccc(C(F)(F)F)cc3)C(=O)N(C)CC(=O)N[C@@H](CCc3cc(F)c(C(F)(F)F)c(F)c3)C(=O)N2C1 [PP1574, (2S,8S,12R,14S,20S,23S,27S,30S,36S,38Z)-20-cyclopentyl-8-[2-[3,5-difluoro-4-(trifluoromethyl)phenyl]ethyl]-12-ethoxy-N-ethyl-27-isobutyl-N,4,19,22,26,32,35-heptamethyl-30-[(1S)-1-methylpropyl]-3,6,9,15,18,21,25,28,31,34,42-undecaoxo-2-[[4-(trifluoromethyl)phenyl]methyl]spiro[1,4,7,10,16,19,22,26,29,32,35-undecazatricyclo[34.5.1.0^10,14]dotetracont-38-ene-17,1′-cyclopentane]-23-carboxamide] | A (a compound having 10 or more and less than 20 is denoted as A) | A (a compound having 10 or more and less than 20 is denoted as A) |  |  |
| CCO[C@@H]1C[C@H]2C(=O)NC3(CC(F)(F)C3)C(=O)N(C)[C@@H](C(CC)CC)C(=O)N3CCC[C@@H]3CC(=O)N(C)[C@@H](CC)C(=O)N[C@@H]([C@@H](C)CC)C(=O)N(C)CC(=O)N(C)[C@H]3C/C=C\CCN(C3=O)[C@@H](Cc3ccc(C(F)(F)F)cc3)C(=O)N(C)CC(=O)N[C@@H](CCc3cc(F)c(C(F)(F)F)c(F)c3)C(=O)N2C1 [PP1608] |  |  | A (a compound having 10 or more and less than 20 is denoted as A) | A (a compound having 10 or more and less than 20 is denoted as A) |
| CCO[C@@H]1C[C@H]2C(=O)NC3(CC(F)(F)C3)C(=O)N(C)[C@@H](C3CCCC3)C(=O)N3CCC[C@@H]3CC(=O)N(C)[C@@H](CC)C(=O)N[C@@H]([C@@H](C)CC)C(=O)N(C)CC(=O)N(C)[C@H]3C/C=C\CCN(C3=O)[C@@H](Cc3ccc(C(F)(F)F)cc3)C(=O)N(C)CC(=O)N[C@@H](CCc3cc(F)c(C(F)(F)F)c(F)c3)C(=O)N2C1 [PP1609] |  |  | A (a compound having 10 or more and less than 20 is denoted as A) | A (a compound having 10 or more and less than 20 is denoted as A) |

— patent publication US20250230193A1, “CYCLIC COMPOUND HAVING SELECTIVE KRAS INHIBITORY EFFECT ON HRAS AND NRAS” (CHUGAI SEIYAKU KABUSHIKI KAISHA, priority 2022, published 2025)
